According to US9610274B2, “Methods for treating bipolar disorder” (priority 2010, dated 2017):
“Also recorded” adds a separate entry of the source. Where two headings read alike, the source gives them in different places.

How the values were obtained:
rats = assay: Forced swimming test in rats; type: in vivo; details: 4 hours post-treatment
Protocol: Male CD-1 mice (16-24 g) and male Wistar rats (90-125 g) were utilized in these experiments. The test compound (10, 15 and 30 mg/kg) was dissolved in physiological saline (0.9%) and administered orally in a volume of 1 mL/100 g body weight.
Mice and rats were placed in glass cylinders of 1000 ml beakers (height 14 cm, diameter 11.5 cm) and 4000 ml beakers (height 24.5 cm, diameter 18.0 cm), respectively, containing water (25 degrees Celsius) up to a height of 9.0 cm for mice and 19.0 cm for rats. […] Immobility was defined as lack of movement, such as floating in the water with little or no movement of hind legs. Duration of immobility was timed with a stopwatch and recorded. In some experiments, mice or rats were allowed to swim for 6 or 10 minutes, respectively, one day prior to the forced swimming experiment.
In the single dose test, mice or rats were given test compound or 0.9% NaCl and placed in glass cylinders 1 hour or 4 hours post-treatment, respectively. In the multiple dose experiments, mice were dosed twice a day for 3 days and given an additional dose on Day 4. In addition, the mice were placed in the glass cylinders containing water at 25 degrees Celsius and allowed to swim for six minutes on Day 3. Statistical evaluation was performed using a computer program (The Pharmacological Calculation System of Tallarida and Murray (#425475-04-7-1992)) based on probit analysis. Statistical significance was determined using Student's t-test at a P value of <0.05.

mice = assay: Forced swimming test in mice; type: in vivo; details: for ED50: Mus musculus
isolated mice = assay: Isolation-induced fighting in mice; type: in vivo; details: Mus musculus
Protocol: Male CD-1 mice (15-20 g) were utilized in this experiment. The test compound (15, 22 and 30 mg/kg) was dissolved in physiological saline (0.9%) and administered orally (PO) in a volume of 1 mL/100 g body weight.
Mice were isolated for up to 8 weeks in individual solid walled wire cages (24×20×17 cm). The animals were not disturbed except to replenish food. Aggression was tested by placing an intruder mouse into the home cage of the resident animal. Aggression was characterized by an attack on the “intruder” during a three minute period. […] Only those resident mice displaying fighting behavior were selected. […] ED50 values were calculated from the percent inhibition of fighting in computer program based on probit analysis.

[1] = molecular target: T1, hSERT (human serotonin transporter) (Homo sapiens, UniProt P31645); assay: Inhibition of [125I]RTI-55 binding to hSERT in HEK293 cell membranes; details: HEK-hSERT cells; mean ± SEM
T1 construct: expressed in transfected cells; host or cells: HEK293 (ATCC), puromycin-selected clonal cells

[2] = test system: homozygous mutant dopamine transporter knockout (KO) mice; assay: Spontaneous activity in the open field, dopamine transporter KO mice; type: in vivo
Protocol: Male and female wild-type and homozygous mutant dopamine transporter KO mice (n˜10 mice/genotype/agent; produced by in vivo homologous recombination and bred at Duke University Medical Center, Durham, N.C.) were tested for spontaneous activity in the open field following a single injection of the vehicle or compound. […] All drugs were given in a volume of 5 mL/kg. Animals were returned to the open field for an additional 90 min. Spontaneous activity was evaluated in an automated Omnitech Digiscan apparatus (Accuscan Instruments, Columbus, Ohio). Activity was summated at 5 min intervals over the 2 h period of testing. Horizontal activity or locomotion was measured in terms of the total distance covered in cm, vertical activity or rearing was expressed in terms of the total numbers of vertical beam breaks, and stereotypy was quantified in terms of repetitive breaks of a given beam or beams with intervals of less than 1 sec. For the analyses, 10 WT and 10 KO mice were run in each of the treatment groups with approximately equal numbers of males and females assigned to each group. Data were analyzed by the Statistical Package for Social Sciences programs (version 11.0 for Windows; SPSS Science, Chicago, Ill.). The results for each dependent variable were analyzed by repeated analyses of variance (RMANOVA) for within subjects effects (group differences over time) and between-subjects effects (tests of main effects and interactions). Bonferroni corrected pair-wise comparisons were used as the post-hoc tests. A p <0.05 was considered significant.

[3] = molecular target: T1, hSERT (human serotonin transporter); assay: Inhibition of [3H]serotonin uptake in HEK-hSERT cells; type: cell-based

T1 sequence (P31645 whole entry): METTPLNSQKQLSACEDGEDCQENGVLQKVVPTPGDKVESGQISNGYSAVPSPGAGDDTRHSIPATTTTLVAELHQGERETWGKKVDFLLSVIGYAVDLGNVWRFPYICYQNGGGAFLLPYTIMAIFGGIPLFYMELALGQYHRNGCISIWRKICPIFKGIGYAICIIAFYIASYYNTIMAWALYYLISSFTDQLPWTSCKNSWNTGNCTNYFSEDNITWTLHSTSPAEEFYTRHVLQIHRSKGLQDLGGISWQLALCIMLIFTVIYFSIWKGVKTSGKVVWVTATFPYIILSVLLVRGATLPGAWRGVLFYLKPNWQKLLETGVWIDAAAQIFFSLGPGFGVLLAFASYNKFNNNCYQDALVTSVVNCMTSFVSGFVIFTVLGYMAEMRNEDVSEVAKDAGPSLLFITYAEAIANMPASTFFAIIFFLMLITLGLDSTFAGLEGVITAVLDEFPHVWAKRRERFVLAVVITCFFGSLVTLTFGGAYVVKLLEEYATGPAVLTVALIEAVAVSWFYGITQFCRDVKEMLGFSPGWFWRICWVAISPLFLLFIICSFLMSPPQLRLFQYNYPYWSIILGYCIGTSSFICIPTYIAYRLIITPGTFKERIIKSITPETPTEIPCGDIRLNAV

With `NC(=O)OC[C@H](N)Cc1ccccc1` [test compound, O-carbamoyl-(D)-phenylalaninol] the “mean duration of immobility” value (rats; 10 mg/kg, control 74 sec, not statistically significant) was 62 s, the “mean duration of immobility” value (rats; 15 mg/kg, control 65 sec, not statistically significant) was 39 s and the “mean duration of immobility” value (rats; 30 mg/kg, control 38 sec, significant) was 9 s. The ED50 (rats; Rattus norvegicus, single dose PO, read-out: ED50 (reduction of mean immobility time)) was 18.5 mg/kg, the ED50 (mice; multiple dosing PO (twice a day for 3 days plus a dose on Day 4), read-out: ED50 (reduction of mean immobility time)) was 5.5 mg/kg and the ED50 (mice; read-out: ED50 (50% reduction in mean immobility time), single dose PO, 1 hour post-treatment) was 16.6 mg/kg. The “mean duration of immobility” value (mice; multiple dosing 3 mg/kg PO, control 85 sec) was 63 s, the “mean duration of immobility” value (mice; multiple dosing 5 mg/kg PO, control 136 sec, significant) was 73 s and the “mean duration of immobility” value (mice; multiple dosing 8 mg/kg PO, control 114 sec, significant) was 39 s. For the same compound, the “mean duration of immobility” value (mice; single dose 10 mg/kg PO, control 131 sec) was 101 s, the “mean duration of immobility” value (mice; single dose 15 mg/kg PO, control 154 sec, significant) was 80 s and the “mean duration of immobility” value (mice; single dose 30 mg/kg PO, control 132 sec, significant) was 30 s. It also gave an inhibition at 15 mg/kg (isolated mice; 1 h, 15 mg/kg PO, 60 min after dosing) of 28%, an inhibition at 22 mg/kg (isolated mice; 1 h, 22 mg/kg PO, 60 min after dosing) of 44% and an inhibition at 30 mg/kg (isolated mice; 1 h, 30 mg/kg PO, 60 min after dosing) of 56%. For the same compound, the ED50 (isolated mice; PO, inhibition of isolation-induced fighting, probit analysis, read-out: ED50 (mg/kg, PO) (confidence limits)) was 25.9 mg/kg, the Hill coefficient [1] was −2.28 ± 0.05 and the “spontaneous activity (locomotor, rearing and stereotypical activities)” value ([2]; single SC injection, test compound 10, 30, 100 mg/kg, amphetamine 2 mg/kg, 90 min post-injection, relative to vehicle) was “selectively reduced activity of the KO mice in a dose-dependent manner; also recorded: reduced activities in a dose-dependent fashion”. The “spontaneous activity compared with amphetamine” value ([2]; test compound 100 mg/kg SC versus amphetamine 2 mg/kg SC) was “suppressed activities more efficiently than amphetamine” and the IC50 [3] was greater than 100 µM.
